# Target: recombinant human CCR5 receptor (Homo sapiens, UniProt P51681)
# Experiment: in vitro radioligand binding assay, inhibition of MIP-1α binding (scintillation proximity)
# Conditions: displacement of 0.1 nM iodinated MIP-1α; membranes from Chinese hamster ovary cells expressing CCR5; negative log10 of IC50 (M); average if tested more than once
# Description: The ability of compounds to inhibit the binding of MIP-1α was assessed by an in vitro radioligand binding assay. Membranes were prepared from Chinese hamster ovary cells which expressed the recombinant human CCR5 receptor. These membranes were incubated with 0.1 nM iodinated MIP-1α, scintillation proximity beads and various concentrations of the compounds of the invention in 96-well plates. The amount of iodinated MP-1α bound to the receptor was determined by scintillation counting. Competition curves were obtained for compounds and the concentration of compound which displaced 50% of bound iodinated MIP-1α was calculated (IC50).
# In Table III the results are presented as Pic50 values. […] If a compound was tested more than once then the data below is an average of the probative tests results.
# Sequence of recombinant human CCR5 receptor (P51681 whole entry): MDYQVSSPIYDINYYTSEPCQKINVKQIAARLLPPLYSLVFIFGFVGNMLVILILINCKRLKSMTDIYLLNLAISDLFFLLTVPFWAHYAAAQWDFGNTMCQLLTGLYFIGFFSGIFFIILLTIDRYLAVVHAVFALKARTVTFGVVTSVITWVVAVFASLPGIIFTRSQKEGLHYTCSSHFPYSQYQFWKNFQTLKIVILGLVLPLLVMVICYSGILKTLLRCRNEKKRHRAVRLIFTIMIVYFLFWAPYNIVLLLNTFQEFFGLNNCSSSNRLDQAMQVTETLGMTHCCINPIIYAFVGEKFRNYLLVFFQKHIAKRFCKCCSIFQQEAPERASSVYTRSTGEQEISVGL
row,SMILES,IC50
1,CS(=O)(=O)c1ccc([C@@H](CCN2CCC(n3cnc4cc(S(C)(=O)=O)ccc43)CC2)c2cccs2)cc1 [Compound No. 8],1e-08 M
2,"CS(=O)(=O)c1ccc([C@@H](CCN2CCC(n3cnc4cc(S(C)(=O)=O)ccc43)CC2)c2cccc(F)c2)cc1 [Compound No. 1, (R)-1-{1-[3-(3-fluoro-phenyl)-3-(4-methanesulfonyl-phenyl)-propyl]-piperidin-4-yl}-5-methanesulfonyl-1H-benzoimidazole]",1e-09 M
3,CS(=O)(=O)c1ccc([C@@H](CCN2CCC(c3nc(Cc4ccccc4)no3)CC2)c2ccccc2)cc1 [Compound No. 4],1.58e-08 M
4,Cc1nnc(C(C)C)n1C1CCN(CC[C@H](c2ccc(S(C)(=O)=O)cc2)c2cccc(F)c2)CC1 [Compound No. 2],3.98e-08 M
5,CS(=O)(=O)c1ccc(Cc2noc(C3CCN(CC[C@@H](c4ccccc4)c4ccc(S(C)(=O)=O)cc4)CC3)n2)cc1 [Compound No. 3],1.26e-09 M
6,CSc1ccc(Cc2noc(C3CCN(CCC(c4ccccc4)c4ccc(S(C)(=O)=O)cc4)CC3)n2)cc1 (stereo not shown) [Compound No. 6],6.31e-08 M
7,CS(=O)(=O)c1ccc([C@@H](CCN2CCC(n3cnc4cc(S(C)(=O)=O)ccc43)CC2)c2ccsc2)cc1 [Compound No. 7],1e-08 M
8,CS(=O)(=O)c1ccc([C@@H](CCN2CCC(n3cnc4cc(S(C)(=O)=O)ccc43)CC2)c2ccccc2)cc1 [Compound No. 5],3.98e-09 M

# Now from value to molecule:
row,IC50,SMILES
1,2e-08 M,CS(=O)(=O)c1ccc([C@@H](CCN2CCC(n3cnc4cc(S(C)(=O)=O)ccc43)CC2)c2ccc(Cl)s2)cc1 [Compound No. 9]
2,1e-09 M,CS(=O)(=O)c1ccc([C@@H](CCN2CCC(n3cnc4cc(S(C)(=O)=O)ccc43)CC2)c2cc(F)cc(F)c2)cc1 [Compound No. 11]
3,2e-08 M,CS(=O)(=O)c1ccc([C@@H](CCN2CCC(n3cnc4cc(S(C)(=O)=O)ccc43)CC2)c2cc(Cl)cs2)cc1 [Compound No. 10]
4,1.58e-07 M,Cc1noc(C2CCN(CC[C@@H](c3ccccc3)c3ccc(S(C)(=O)=O)cc3)CC2)n1 [Compound No. 13]
5,2e-08 M,Cc1nnc(C(C)C)n1C1CCN(CC[C@H](c2ccc(S(C)(=O)=O)cc2)c2cc(F)cc(F)c2)CC1 [Compound No. 12]
